14 molecules from ChEMBL document CHEMBL4265969, “Design, synthesis and biological evaluation of (2S,3R,4R,5S,6R)-5-fluoro-6-(hydroxymethyl)-2-aryltetrahydro-2H-pyran-3,4-diols as potent and orally active SGLT dual inhibitors” (Bioorg Med Chem Lett, 2018) can be followed below.

Series [1] in a line: Cmax in Sprague-Dawley rat at 10 mg/kg, po. Format: ADME, organism-based. Also on record: dose 10 mg/kg, route oral. Particulars: in vivo.
Series [2] can be described thus: Half life in Sprague-Dawley rat at 2 mg/kg, iv. Format: ADME, organism-based. Particulars: in vivo.
The nature of series [3]: Tmax in Sprague-Dawley rat at 10 mg/kg, po. In kind it is ADME, organism-based. Particulars: in vivo.
Series [4] in a line: Oral bioavailability in Sprague-Dawley rat at 10 mg/kg. Format: ADME, organism-based. Particulars: in vivo.
Series [5] can be described thus: Metabolic stability in mouse liver microsomes at 1 uM after 10 mins in presence of NADPH. In kind it is ADME, microsome. Particulars: read-out: Stability. A general note: Liver microsomes are vesicles of endoplasmic reticulum, rich in cytochrome P450 enzymes.
Series [6] can be described thus: Metabolic stability in human liver microsomes at 1 uM after 10 mins in presence of NADPH. Particulars: read-out: Stability. In kind it is ADME, microsome.
Series [7] in a line: Half life in Sprague-Dawley rat at 10 mg/kg, po. Format: ADME, organism-based. Particulars: in vivo.
Series [8] can be described thus: Clearance in Sprague-Dawley rat at 2 mg/kg, iv. Format: ADME, organism-based. Particulars: in vivo.
Series [9] is described as follows: AUC (0 to infinity) in Sprague-Dawley rat at 10 mg/kg, po. In kind it is ADME, organism-based. Also on record: dose 10 mg/kg, route oral, time infinity. Particulars: in vivo.
Series [10] is described as follows: Volume of distribution at steady state in Sprague-Dawley rat at 2 mg/kg, iv. Format: ADME, organism-based. Particulars: in vivo, read-out: Vdss.
The nature of series [11]: Metabolic stability in rat liver microsomes at 1 uM after 10 mins in presence of NADPH. In kind it is ADME, microsome. Particulars: read-out: Stability.
In series [12] the target is T1, Sodium/glucose cotransporter 2 (Homo sapiens, UniProt P31639).
T1 sequence (P31639 whole entry): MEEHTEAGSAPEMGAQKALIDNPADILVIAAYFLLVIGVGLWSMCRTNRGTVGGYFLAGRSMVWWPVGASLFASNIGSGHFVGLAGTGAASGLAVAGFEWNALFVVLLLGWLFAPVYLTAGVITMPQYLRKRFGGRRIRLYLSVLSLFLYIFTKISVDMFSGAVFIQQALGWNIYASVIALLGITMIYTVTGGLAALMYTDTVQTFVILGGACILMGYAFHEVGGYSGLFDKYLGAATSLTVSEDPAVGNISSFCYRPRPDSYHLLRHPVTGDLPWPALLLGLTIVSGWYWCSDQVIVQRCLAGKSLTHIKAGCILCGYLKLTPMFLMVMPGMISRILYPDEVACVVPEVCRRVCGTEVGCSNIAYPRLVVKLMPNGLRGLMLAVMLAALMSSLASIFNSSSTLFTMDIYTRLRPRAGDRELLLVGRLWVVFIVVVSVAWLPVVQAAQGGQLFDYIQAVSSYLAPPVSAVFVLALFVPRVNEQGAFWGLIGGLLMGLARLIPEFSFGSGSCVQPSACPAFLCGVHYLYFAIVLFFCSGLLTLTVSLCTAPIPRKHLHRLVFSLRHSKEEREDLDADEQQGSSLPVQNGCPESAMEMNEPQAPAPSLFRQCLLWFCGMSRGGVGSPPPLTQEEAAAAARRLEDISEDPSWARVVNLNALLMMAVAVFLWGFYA
Briefly: Inhibition of human kidneyl SGLT2 expressed in CHOK1 cells assessed as reduction in Na-dependent [14C]-AMG uptake preincubated for 10 mins followed by [14C]-AMG addition measured after 2 hrs by TopCount method. In kind it is cell-based.

Series [13] is described as follows: Half life in human hepatocytes at 1 uM. Format: ADME, cell-based, Hepatocyte.
Series [14] can be described thus: Half life in monkey hepatocytes at 1 uM. Format: ADME, cell-based, Macaca mulatta, Hepatocyte. Particulars: rhesus monkey.
Series [15] addresses T2, Sodium/glucose cotransporter 2 (Homo sapiens) (UniProt P31639).
T2 sequence (whole entry): T1 sequence (P31639 whole entry)
Briefly: Inhibition of human kidneyl SGLT2 expressed in CHOK1 cells assessed as reduction in Na-dependent [14C]-AMG uptake at 0.3 uM preincubated for 10 mins followed by [14C]-AMG addition measured after 2 hrs by TopCount method relative to control. In kind it is cell-based.

Series [16] addresses T3, SGLT1 (sodium/glucose cotransporter 1) (Homo sapiens, UniProt P13866).
T3 sequence (P13866 whole entry): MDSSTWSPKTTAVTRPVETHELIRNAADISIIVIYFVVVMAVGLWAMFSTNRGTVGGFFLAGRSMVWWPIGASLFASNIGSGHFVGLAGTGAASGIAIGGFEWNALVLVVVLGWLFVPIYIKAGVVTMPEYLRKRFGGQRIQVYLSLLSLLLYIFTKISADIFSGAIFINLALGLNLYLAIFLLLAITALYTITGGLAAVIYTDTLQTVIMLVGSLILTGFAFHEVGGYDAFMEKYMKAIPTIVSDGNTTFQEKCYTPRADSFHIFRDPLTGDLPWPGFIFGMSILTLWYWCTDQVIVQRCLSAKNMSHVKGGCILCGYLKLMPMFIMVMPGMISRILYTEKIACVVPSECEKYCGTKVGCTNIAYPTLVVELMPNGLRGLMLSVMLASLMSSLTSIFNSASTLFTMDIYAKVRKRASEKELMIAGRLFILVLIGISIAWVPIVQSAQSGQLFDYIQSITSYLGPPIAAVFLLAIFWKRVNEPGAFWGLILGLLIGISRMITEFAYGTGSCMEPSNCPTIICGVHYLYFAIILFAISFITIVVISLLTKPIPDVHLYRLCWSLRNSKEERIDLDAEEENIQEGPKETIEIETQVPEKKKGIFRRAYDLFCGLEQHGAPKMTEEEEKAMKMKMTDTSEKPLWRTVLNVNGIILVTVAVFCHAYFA
The series is described as follows: Inhibition of human small intestinal SGLT1 expressed in CHOK1 cells assessed as reduction in Na-dependent [14C]-AMG uptake at 0.3 uM preincubated for 10 mins followed by [14C]-AMG addition measured after 2 hrs by TopCount method relative to control. Format: cell-based. Particulars: CHO-K1 cells expressing human SGLT1, probe [14C]-AMG.

Series [17] is described as follows: Half life in dog hepatocytes at 1 uM. In kind it is ADME, cell-based, Canis lupus familiaris, Hepatocyte.
Series [18] can be described thus: Half life in Sprague-Dawley rat hepatocytes at 1 uM. In kind it is ADME, cell-based, Hepatocyte.

Take `Cc1cc(O)c([C@@H]2O[C@H](CO)[C@@H](F)[C@H](O)[C@H]2O)cc1Cc1cc2c(s1)CCN(C#N)C2`: the Cmax in series [1] amounted to 13.7 ng/mL. The values for the half-life in series [2] and in series [7] were 0.99 h and 1.44 h, respectively. For the same molecule, the Tmax in series [3] was 2.2 h. Moreover, the bioavailability in [4] came out at 5%. For the same molecule, the remaining at 10 min, 1 µM came out at 91% in series [5], 95% in [6] and 79% in series [11]. Further, in series [8], the clearance turned out to be 149 mL/min/kg. Besides, in [9], the area under the curve AUC(0-inf) amounted to 44.6 ng·h/mL. In series [10], the Vd was determined as 3.79 L/kg. Also, the IC50 in series [12] is 2.6 nM.
Take `OC[C@H]1O[C@@H](c2cc(Cc3ccc4c(c3)OCCO4)c3c(c2O)CCO3)[C@H](O)[C@@H](O)[C@@H]1F`: in series [1], the concentration peaked (Cmax) at 168 ng/mL. For the same molecule, the half-life in series [2] is 0.31 h. The Tmax in series [3] was found to be 0.25 h. The molecule also yielded a bioavailability in series [4] of 4%. For the same molecule, the remaining at 10 min, 1 µM in series [5] is 97%; in [6], 97%; in series [11], 64%. Moreover, the clearance in [8] is 28.1 mL/min/kg. In series [9], this molecule showed an area under the curve AUC(0-inf) of 307 ng·h/mL. Besides, the Vd in series [10] was found to be 1.22 L/kg.
As for `Cc1ncc2n1-c1ccc(Cl)cc1C(c1ccccc1F)=NC2` [MIDAZOLAM], the half-life at 1 µM in series [13] was 1 h; in series [14], 1.4 h.
Take `Cc1ccc([C@@H]2O[C@H](CO)[C@@H](F)[C@H](O)[C@H]2O)cc1Cc1cc2c(s1)CCN(C#N)C2`: in series [15], the inhibition came to 76%.
Take `Cc1cc(O)c([C@@H]2O[C@H](CO)[C@@H](F)[C@H](O)[C@H]2O)cc1Cc1cc2c(s1)CCN(C(=O)N1CCCC1)C2`: the remaining at 10 min, 1 µM in series [5] amounted to 74%; in series [6] it was 71%; in series [11], 82%. For the same molecule, the half-inhibitory concentration (IC50) in series [12] came to 13.6 nM.
In the case of `OC[C@H]1O[C@@H](c2cc(Cc3ccc4c(c3)OCCO4)c(O)c3c2OCC3)[C@H](O)[C@@H](O)[C@@H]1F`, in [16], the inhibition at 2 h, 0.3 µM is 31%. In addition, in series [15], the inhibition was found to be 26%.
In the case of `COc1c([C@@H]2O[C@H](CO)[C@@H](F)[C@H](O)[C@H]2O)cc(Cc2ccc3c(c2)SCCO3)c2c1CCO2`, the remaining at 10 min, 1 µM in series [5] was 61%; in [6], 73%; in [11], 12%. Also, the IC50 in series [12] was 8.3 nM.
On to `Cc1cc(O)c([C@@H]2O[C@H](CO)[C@@H](F)[C@H](O)[C@H]2O)cc1Cc1cc2c(s1)CCN(C(=O)c1nccs1)C2`, for which the remaining at 10 min, 1 µM amounted to 66% in series [5], 69% in series [6] and 91% in series [11].
`CCOC(=O)N1CCc2sc(Cc3cc([C@@H]4O[C@H](CO)[C@@H](F)[C@H](O)[C@H]4O)c(O)cc3C)cc2C1`: the remaining at 10 min, 1 µM is 86% in [5], 80% in [6] and 78% in series [11].
For the molecule `O=C(O)Cc1ccccc1Nc1c(Cl)cccc1Cl` [DICLOFENAC], the half-life at 1 µM in [17] was 5.2 h; in series [18], 0.8 h; in [13], 0.7 h; in series [14] it was 1 h.
Turning to `COc1cc(C)c(Cc2cc3c(s2)CCN(C#N)C3)cc1[C@@H]1O[C@H](CO)[C@@H](F)[C@H](O)[C@H]1O`, the 50% inhibitory concentration (IC50) in series [12] stood at 5.3 nM.
On to `Cc1ccc([C@@H]2O[C@H](CO)[C@@H](F)[C@H](O)[C@H]2O)cc1Cc1cc2c(s1)CCN(C(=O)C1CCCC1)C2`, for which the inhibition at 2 h, 0.3 µM in series [16] was determined as 49%. In series [15], the inhibition worked out at 59%.
For the molecule `COc1c(Cc2ccc3c(c2)OCCO3)cc([C@@H]2O[C@H](CO)[C@@H](F)[C@H](O)[C@H]2O)c2c1CCO2`, the figures for the remaining at 10 min, 1 µM in series [5], in series [6] and in series [11] were 94%, 91% and 2%, respectively. The IC50 in series [12] amounted to 7.5 nM.
As for `Cc1ccc([C@@H]2O[C@H](CO)[C@@H](F)[C@H](O)[C@H]2O)cc1Cc1cc2c(s1)CCN(C(=O)c1nccs1)C2`, the inhibition at 2 h, 0.3 µM in series [16] is 39%. Also, in series [15], the inhibition worked out at 73%.

As a reminder, the Cmax is the highest concentration seen after dosing. As a reminder, the half-life is the time needed for the level to fall by half in the phase considered. A word on the Tmax: it is the time from dosing to the highest level. What is called bioavailability is the share of a dose that reaches the circulation, judged against a reference dose that is usually intravenous. A word on the clearance: it is the rate of elimination divided by the concentration. As usually defined, the AUC(0-inf) is the area under the concentration-time curve extrapolated to infinity. What is called IC50 is the point on the concentration scale where inhibition reaches its midpoint. As a reminder, the inhibition is how much of the control response was suppressed.
